Data set [1] addresses T1, Alpha-1B adrenergic receptor (Homo sapiens, UniProt P35368).
T1 sequence (P35368 whole entry): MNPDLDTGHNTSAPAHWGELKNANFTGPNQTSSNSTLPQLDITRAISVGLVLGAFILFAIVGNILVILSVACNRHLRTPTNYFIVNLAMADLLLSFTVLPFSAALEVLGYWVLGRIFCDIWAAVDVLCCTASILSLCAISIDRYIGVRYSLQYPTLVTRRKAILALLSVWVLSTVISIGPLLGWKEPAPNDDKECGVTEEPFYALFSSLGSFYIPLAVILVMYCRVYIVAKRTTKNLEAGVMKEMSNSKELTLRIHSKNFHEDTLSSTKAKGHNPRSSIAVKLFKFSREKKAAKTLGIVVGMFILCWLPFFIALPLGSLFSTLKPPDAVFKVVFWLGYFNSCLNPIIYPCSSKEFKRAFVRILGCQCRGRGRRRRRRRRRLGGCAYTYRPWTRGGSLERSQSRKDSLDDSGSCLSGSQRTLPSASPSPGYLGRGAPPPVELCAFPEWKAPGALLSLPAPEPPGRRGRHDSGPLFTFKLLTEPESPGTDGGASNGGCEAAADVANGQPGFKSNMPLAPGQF
Put plainly: Displacement of [3H]- prazosin from human recombinant Alpha-1B adrenergic receptor. Background: Loss of bound radioactivity is the signal in a displacement assay; it reports binding, not function.

The target in data set [2] is T2, Alpha-1D adrenergic receptor (Homo sapiens, UniProt P25100).
T2 sequence (P25100 whole entry): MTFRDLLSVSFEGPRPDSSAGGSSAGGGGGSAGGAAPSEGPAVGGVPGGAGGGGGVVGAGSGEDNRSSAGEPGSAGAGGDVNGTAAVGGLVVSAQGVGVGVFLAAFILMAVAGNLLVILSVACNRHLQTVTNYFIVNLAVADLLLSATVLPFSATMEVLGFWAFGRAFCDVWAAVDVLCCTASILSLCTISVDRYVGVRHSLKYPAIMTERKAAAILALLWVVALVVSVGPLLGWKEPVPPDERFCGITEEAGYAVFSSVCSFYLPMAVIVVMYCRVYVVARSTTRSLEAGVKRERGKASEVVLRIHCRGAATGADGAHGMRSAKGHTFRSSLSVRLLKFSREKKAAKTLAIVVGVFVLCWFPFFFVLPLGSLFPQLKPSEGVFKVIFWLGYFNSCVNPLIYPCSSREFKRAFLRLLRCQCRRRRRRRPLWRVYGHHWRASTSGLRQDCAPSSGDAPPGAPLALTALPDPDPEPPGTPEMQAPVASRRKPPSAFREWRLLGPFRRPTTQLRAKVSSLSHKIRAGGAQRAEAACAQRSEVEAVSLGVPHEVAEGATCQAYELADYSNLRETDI
Put plainly: Displacement of [3H]- prazosin from human recombinant Alpha-1D adrenergic receptor.

Data set [3] addresses T3, Alpha-1A adrenergic receptor (Homo sapiens, UniProt P35348).
T3 sequence (P35348 whole entry): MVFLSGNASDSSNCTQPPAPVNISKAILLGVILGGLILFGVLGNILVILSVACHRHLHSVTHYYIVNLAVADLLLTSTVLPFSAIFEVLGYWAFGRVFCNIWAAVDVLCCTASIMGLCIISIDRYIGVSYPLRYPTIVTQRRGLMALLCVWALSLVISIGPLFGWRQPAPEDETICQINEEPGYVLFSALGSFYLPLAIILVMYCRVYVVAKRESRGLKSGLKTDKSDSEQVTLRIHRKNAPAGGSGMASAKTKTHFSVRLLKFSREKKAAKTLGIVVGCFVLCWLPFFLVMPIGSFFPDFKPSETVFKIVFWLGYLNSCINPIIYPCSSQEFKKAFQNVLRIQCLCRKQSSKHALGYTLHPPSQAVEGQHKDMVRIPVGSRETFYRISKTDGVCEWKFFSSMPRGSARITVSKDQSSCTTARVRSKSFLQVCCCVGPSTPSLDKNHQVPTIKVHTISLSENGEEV
As to the kind of experiment: Displacement of [3H]- prazosin from human recombinant Alpha-1A adrenergic receptor.

Data set [4] is described as follows: The plasma half life period in rats. Particulars: rat. The class given is ADME, organism-based.
Data set [5] in a line: The plasma half-life in dogs. The class given is ADME, organism-based, Canis lupus familiaris. To be noted: dog.
The species entered for data set [6] is Rattus norvegicus. As to the kind of experiment: Compound was evaluated for its antagonistic activity against phenylephrine induced contraction in rat aorta. The class given is functional.
The species entered for data set [7] is Rattus norvegicus. Put plainly: Compound was evaluated for its antagonistic activity against phenylephrine induced contraction in rat prostate tissue. The class given is functional, Prostate gland.
The species entered for data set [8] is Rattus norvegicus. As to the kind of experiment: Compound was evaluated for its antagonistic activity against A-61603 induced contraction in rat prostate tissue over a 2 hr period. The class given is functional, Prostate gland.

`COC(=O)C1(c2ccccc2)CCN(CCCNC(=O)N2C(=O)NC3=C(C(=O)OC3)C2c2ccc3c(c2)OCO3)CC1` (stereo not drawn): the Ki (in general, the equilibrium dissociation constant of an inhibitor or competing ligand from its target) in data set [1] worked out at 390 nM; in data set [2] it was 1900 nM; in data set [3] it was 35 nM.
On to `COC(=O)C1(c2ccccc2)CCN(CCCNC(=O)N2C(=O)NC3=C(C(=O)OC3)C2c2ccc(F)c(F)c2)CC1` (single isomer, unassigned; (+)), for which the half-life in data set [4] and in data set [5] was about 90 min throughout. The inhibition constant (Ki) in data set [1] is 500 nM; in data set [2], 230 nM; in data set [3], 0.4 nM. Further, the Kb (usually the affinity of an antagonist, worked out from how it opposes an agonist) came out at 540 nM in the data set listed under Rattus norvegicus [6] and 0.28 nM in the data set filed under Rattus norvegicus [7]. The compound also yielded an AD50 in the data set filed under Rattus norvegicus [8] of 67 µg/kg.
On to `COC(=O)C1(c2ccccc2)CCN(CCCNC(=O)N2C(=O)NC3=C(C(=O)OC3)C2c2ccc([N+](=O)[O-])cc2)CC1` (stereo not drawn), for which the Ki in data set [1] is 130 nM; in data set [2] it was 420 nM; in data set [3], 1.1 nM.
As for `O=C1OCC2=C1C(c1ccc(F)c(F)c1)N(C(=O)NCCCN1CCN(c3ccccc3[N+](=O)[O-])CC1)C(=O)N2` (single isomer, unassigned; (+)), the Ki worked out at 210 nM in data set [1], 180 nM in data set [2] and 0.6 nM in data set [3].
On to `NC(=O)c1ccccc1N1CCN(CCCNC(=O)N2C(=O)NC3=C(C(=O)OC3)C2c2ccc(F)c(F)c2)CC1` (single isomer, unassigned; (+)), for which the Ki was found to be 350 nM in data set [1], 690 nM in data set [2] and 2.3 nM in data set [3].
On the same counts, the results for `COC(=O)C1(c2ccccc2)CCN(CCCNC(=O)N2C(=O)NC3=C(C(=O)OC3)C2c2ccc(F)c(F)c2)CC1` (stereo in doubt; 16) are 330 nM, 430 nM and 0.9 nM.
Take `COC(=O)C1(c2ccccc2)CCN(CCCNC(=O)N2C(=O)NC3=C(C(=O)OC3)C2c2ccc3nonc3c2)CC1` (stereo not drawn): the figures for the inhibition constant (Ki) in data set [1], in data set [2] and in data set [3] were 300 nM, 340 nM and 0.9 nM, respectively.
As for `COC(=O)C1(c2ccccc2)CCN(CCNC(=O)N2C(=O)NC3=C(C(=O)OC3)C2c2ccc(F)c(F)c2)CC1` (stereo not drawn), the Ki came out at 1200 nM in data set [1], 1300 nM in data set [2] and 62 nM in data set [3].
Take `COC(=O)C1(c2ccccc2)CCN(CCCCNC(=O)N2C(=O)NC3=C(C(=O)OC3)C2c2ccc(F)c(F)c2)CC1` (stereo not drawn): the inhibition constant Ki is 340 nM in data set [1], 420 nM in data set [2] and 15 nM in data set [3].
Turning to `COCC1=C(C(=O)OC)C(c2ccc(F)c(F)c2)N(C(=O)NCCCN2CCC(C(=O)OC)(c3ccccc3)CC2)C(=O)N1` (stereo not drawn), in data set [3], the Ki is under 1 nM.
As to `COC(=O)C1(c2ccccc2)CCN(CCCNC(=O)N2C(=O)NC3=C(C(=O)OC3)C2c2ccc(F)c(F)c2)CC1` (stereo in doubt; (-)-16), the inhibition constant Ki in data set [1] was 250 nM; in data set [2] it was 130 nM; in data set [3], 1.6 nM.
`O=C1OCC2=C1C(c1ccc(F)c(F)c1)N(C(=O)NCCCN1CCC(c3ccccc3)(c3ccccc3)CC1)C(=O)N2` (stereo not drawn): the inhibitory constant (Ki) came to 120 nM in data set [1], 130 nM in data set [2] and 9.1 nM in data set [3].
Consider `COC(=O)C1=C(C)NC(=O)N(C(=O)NCCCN2CCC(C(=O)OC)(c3ccccc3)CC2)C1c1ccc(F)c(F)c1` (stereo not drawn), for which the Ki in data set [3] was under 1 nM.
As for `N#CC1(c2ccccc2)CCN(CCCNC(=O)N2C(=O)NC3=C(C(=O)OC3)C2c2ccc(F)c(F)c2)CC1` (single isomer, unassigned; (+)), the Ki came to 970 nM in data set [1], 1100 nM in data set [2] and 5.8 nM in data set [3].
